Earlier results, collected in patent publication US11033578B2, “Nutritional supplement for growth enhancement” (Nutritional Growth Solutions LTD, priority 2013, dated 2021).

Assays:
children = settings: meta analysis; 95% CI: 0.46, 2.51
[1] = system: initially stunted infants; settings: daily syrup for six months; vs placebo

In the case of `[Fe]` [iron], the “increase in hemoglobin concentrations, effect size” value (children) is given as 1.49.
For zinc [zinc-alone], the “mean height for age Z-score” value [1] is given as “decreased to a greater extent than placebo”.
